Measured values published in patent publication US4748187A, “Opioid peptide-degrading enzyme inhibitor with a germanium compound” (Asai Germanium Research Institute, priority 1983, dated 1988).
Blank lines part the entries; values can stand above or below the compound they belong to.

Tests used:
Type in all cases: biochemical
[1] = molecular target: Aminopeptidase; experiment: Inhibition of aminopeptidase from bovine longitudinal muscle (substrate enkephalin); details: for IC50: aminopeptidase; for inhibition rate, Aminopeptidase: principal ingredient 1 μg/1 ml
Source text: (§1) (1) As described above, the inhibitor of the present invention has a strong effect of inhibiting the action of the opioid peptide-degrading enzyme. […] On the other hand, however, some opioid peptides released in vivo when such narcotic substances are given and opioid peptide-degrading enzymes have been known. Accordingly, the effects of the products of the present invention were judged from inhibition rates realized when the products were allowed to act on the opioid peptide-degrading enzyme in the presence of the opioid peptide in vitro.
(§2) In the tests, the product of the invention was added to an opioid peptide such as enkephalin or its model compound. After an incubation effected for a given time, the inhibition rates of the product against the opioid peptide-degrading enzyme were examined. Various opioid peptides were used.
(§3) The opioid peptide-degrading enzymes derived from bovine longitudinal muscle used in the above examples were purified partially by a process of Goreustein and Snyder S. H., ["Life Sci." 25, 2065 (1979)]. The inhibition effects of the compounds of the present invention on the opioid peptide-degrading enzymes were determined by a process of T. Hazato, M. Shimamura, T. Katayama and T. Yamamoto [B.B.R.C. 105, 470-475 (1982)] (for dipeptidylaminopeptidase), a process of M. Shimamura, T. Hazato and T. Katayama [B.B.A., 756, 223-229 (1983)] (for aminopeptidase) and analogous processes.

[2] = molecular target: aminopeptidase; experiment: Inhibition of aminopeptidase of human cerebrospinal fluid (substrate enkephalin); details: for IC50: aminopeptidase eluted from human cerebrospinal fluid, substrate enkephalin; for inhibition effect on aminopeptidase: dialyzed human cerebrospinal fluid, 2 mg/ml
Description: (§4) A human cerebrospinal fluid was dialyzed by using 25 mM of tris-HCl buffer having a pH of 7.0 for 5 hrs. Enkephalin-degrading enzymes contained therein were analyzed according to a radioautography or the like. In the cerebrospinal fluid, the aminopeptidase activity was the strongest. Further, dipeptidylaminopeptidase and dipeptidylcarboxypeptidase activites which were non-selective for bestatin were also recognized.
(§5) The compound (3) and (6) of the present invention were allowed to act on the respective enzymes.
On the other hand, the aminopeptidase alone was eluted according to the cellulose column chromatography using a NaCl solution as a eluant. IC50 values of the above two compounds on the aminopeptidase were determined according to Porapak Q column process and high-performance liquid chromatography using enkephalin as the substrate. The results were compared with those of Arphamenin A and B the inhibitive actions of which on the enkephalin-degrading enzyme have been known.

[3] = tested on: Dipeptidylaminopeptidase; experiment: Inhibition of dipeptidylaminopeptidase from monkey brain (substrate enkephalin)
[4] = molecular target: T1, angiotensin converting enzyme (Rattus norvegicus, UniProt P47820); experiment: Inhibition of angiotensin converting enzyme from rat lung; details: substrate Hip--His--L-Lue
T1 construct: lung; from tissue; host or cells: rat lung
T1 sequence (P47820 36-1313): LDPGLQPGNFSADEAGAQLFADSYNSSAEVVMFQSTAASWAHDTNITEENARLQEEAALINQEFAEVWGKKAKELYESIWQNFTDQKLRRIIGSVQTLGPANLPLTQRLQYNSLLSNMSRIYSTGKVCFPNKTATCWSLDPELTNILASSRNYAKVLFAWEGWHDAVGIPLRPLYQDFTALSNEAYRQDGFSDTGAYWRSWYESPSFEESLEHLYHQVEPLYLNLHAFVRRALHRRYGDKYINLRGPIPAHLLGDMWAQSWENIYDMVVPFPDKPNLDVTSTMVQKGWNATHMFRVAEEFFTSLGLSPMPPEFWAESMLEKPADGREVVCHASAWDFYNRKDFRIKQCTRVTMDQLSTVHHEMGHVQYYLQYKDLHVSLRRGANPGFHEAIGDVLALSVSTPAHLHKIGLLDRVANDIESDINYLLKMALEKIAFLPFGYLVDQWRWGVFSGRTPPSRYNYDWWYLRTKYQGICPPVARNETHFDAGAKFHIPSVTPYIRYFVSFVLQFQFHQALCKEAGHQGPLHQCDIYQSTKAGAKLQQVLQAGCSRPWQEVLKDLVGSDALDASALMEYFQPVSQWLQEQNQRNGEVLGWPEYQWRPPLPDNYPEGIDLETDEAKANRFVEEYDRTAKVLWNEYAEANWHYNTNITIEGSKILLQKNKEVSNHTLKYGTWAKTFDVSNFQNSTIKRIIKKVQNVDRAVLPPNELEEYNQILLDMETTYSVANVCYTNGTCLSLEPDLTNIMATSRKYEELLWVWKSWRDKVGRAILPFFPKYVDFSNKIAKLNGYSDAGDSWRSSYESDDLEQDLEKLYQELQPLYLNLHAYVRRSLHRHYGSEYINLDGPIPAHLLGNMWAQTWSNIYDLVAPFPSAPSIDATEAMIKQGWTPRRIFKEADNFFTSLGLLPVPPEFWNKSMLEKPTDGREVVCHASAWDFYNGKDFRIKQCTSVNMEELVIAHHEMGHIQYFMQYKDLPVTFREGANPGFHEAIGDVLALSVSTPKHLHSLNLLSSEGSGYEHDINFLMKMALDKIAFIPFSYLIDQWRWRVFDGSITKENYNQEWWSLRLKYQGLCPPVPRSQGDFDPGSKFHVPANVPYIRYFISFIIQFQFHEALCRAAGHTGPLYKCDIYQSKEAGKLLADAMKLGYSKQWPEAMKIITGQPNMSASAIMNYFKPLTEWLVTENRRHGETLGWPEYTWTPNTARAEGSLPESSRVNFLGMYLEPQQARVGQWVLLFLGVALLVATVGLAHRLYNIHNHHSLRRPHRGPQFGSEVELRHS

[5] = molecular target: Angiotensin converting enzyme; experiment: Inhibition of angiotensin converting enzyme from monkey brain; details: substrate Hip--His--L-Lue
[6] = tested on: Carboxypeptidase; experiment: Inhibition of carboxypeptidase from bovine longitudinal muscle (substrate Hip-L-PheAla); details: for inhibition rate, Carboxypeptidase: principal ingredient 1 μg/1 ml
Source text: as §1, §2, §3

[7] = molecular target: T2, Dipeptidylcarboxypeptidase (Bos taurus, UniProt P12820); experiment: Inhibition of dipeptidylcarboxypeptidase from bovine longitudinal muscle (substrate Hip-His-Leu)
T2 construct: derived from bovine longitudinal muscle; from tissue; host or cells: bovine longitudinal muscle, partially purified (Gorenstein and Snyder 1979)
T2 sequence (P12820 29-1306): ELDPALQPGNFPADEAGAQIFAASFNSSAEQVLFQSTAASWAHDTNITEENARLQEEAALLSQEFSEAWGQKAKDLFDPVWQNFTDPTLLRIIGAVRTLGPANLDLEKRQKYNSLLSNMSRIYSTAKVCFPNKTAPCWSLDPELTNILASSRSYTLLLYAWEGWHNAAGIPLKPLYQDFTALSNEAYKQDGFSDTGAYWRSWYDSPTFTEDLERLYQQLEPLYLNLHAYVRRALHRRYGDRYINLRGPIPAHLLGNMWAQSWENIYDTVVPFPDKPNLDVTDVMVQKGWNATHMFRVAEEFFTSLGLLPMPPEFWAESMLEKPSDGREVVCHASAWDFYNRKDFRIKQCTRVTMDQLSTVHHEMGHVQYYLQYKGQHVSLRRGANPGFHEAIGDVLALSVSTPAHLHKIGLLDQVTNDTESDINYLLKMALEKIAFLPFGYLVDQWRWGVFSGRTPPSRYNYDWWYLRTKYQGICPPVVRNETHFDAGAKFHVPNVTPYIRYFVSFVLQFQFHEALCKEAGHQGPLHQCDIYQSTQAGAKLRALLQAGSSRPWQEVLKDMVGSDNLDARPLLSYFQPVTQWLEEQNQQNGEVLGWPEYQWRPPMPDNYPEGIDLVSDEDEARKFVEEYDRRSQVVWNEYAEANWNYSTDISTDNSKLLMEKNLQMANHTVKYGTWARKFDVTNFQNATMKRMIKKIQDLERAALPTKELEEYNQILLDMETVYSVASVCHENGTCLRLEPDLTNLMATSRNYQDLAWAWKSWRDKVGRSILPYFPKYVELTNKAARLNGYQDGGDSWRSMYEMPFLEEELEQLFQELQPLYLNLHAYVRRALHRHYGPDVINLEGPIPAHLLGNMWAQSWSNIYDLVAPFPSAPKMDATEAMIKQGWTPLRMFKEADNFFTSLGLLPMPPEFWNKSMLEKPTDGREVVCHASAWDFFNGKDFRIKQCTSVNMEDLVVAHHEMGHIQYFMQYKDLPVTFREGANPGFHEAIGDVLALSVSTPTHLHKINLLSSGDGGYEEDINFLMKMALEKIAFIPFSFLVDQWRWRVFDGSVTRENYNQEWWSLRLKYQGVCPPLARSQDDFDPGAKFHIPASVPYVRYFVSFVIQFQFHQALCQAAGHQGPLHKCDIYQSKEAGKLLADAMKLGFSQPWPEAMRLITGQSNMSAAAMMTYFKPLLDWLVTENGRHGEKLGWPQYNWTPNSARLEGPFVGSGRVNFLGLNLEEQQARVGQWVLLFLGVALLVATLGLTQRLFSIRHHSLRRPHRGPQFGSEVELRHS
Source text: as §1, §2
as §3, with “(for aminopeptidase) and analogous processes.” left out

[8] = tested on: Aminopeptidase; experiment: Inhibition of aminopeptidase from monkey brain (substrate enkephalin)
[9] = molecular target: dipeptidylcarboxypeptidase (Homo sapiens, UniProt P12821); experiment: Inhibition of dipeptidylcarboxypeptidase of human cerebrospinal fluid; details: dialyzed human cerebrospinal fluid; 2 mg/ml
Description: as §4, §5

[10] = tested on: carboxypeptidase; experiment: Inhibition of carboxypeptidase of human cerebrospinal fluid; details: dialyzed human cerebrospinal fluid; 2 mg/ml
Description: as §4, §5

[11] = molecular target: T3, dipeptidylaminopeptidase (Homo sapiens, UniProt Q9NY33); experiment: Inhibition of dipeptidylaminopeptidase of human cerebrospinal fluid; details: dialyzed human cerebrospinal fluid; 2 mg/ml
T3 construct: A human cerebrospinal fluid was dialyzed; from tissue; host or cells: human cerebrospinal fluid, dialyzed
T3 sequence (Q9NY33 2-737 limits assumed): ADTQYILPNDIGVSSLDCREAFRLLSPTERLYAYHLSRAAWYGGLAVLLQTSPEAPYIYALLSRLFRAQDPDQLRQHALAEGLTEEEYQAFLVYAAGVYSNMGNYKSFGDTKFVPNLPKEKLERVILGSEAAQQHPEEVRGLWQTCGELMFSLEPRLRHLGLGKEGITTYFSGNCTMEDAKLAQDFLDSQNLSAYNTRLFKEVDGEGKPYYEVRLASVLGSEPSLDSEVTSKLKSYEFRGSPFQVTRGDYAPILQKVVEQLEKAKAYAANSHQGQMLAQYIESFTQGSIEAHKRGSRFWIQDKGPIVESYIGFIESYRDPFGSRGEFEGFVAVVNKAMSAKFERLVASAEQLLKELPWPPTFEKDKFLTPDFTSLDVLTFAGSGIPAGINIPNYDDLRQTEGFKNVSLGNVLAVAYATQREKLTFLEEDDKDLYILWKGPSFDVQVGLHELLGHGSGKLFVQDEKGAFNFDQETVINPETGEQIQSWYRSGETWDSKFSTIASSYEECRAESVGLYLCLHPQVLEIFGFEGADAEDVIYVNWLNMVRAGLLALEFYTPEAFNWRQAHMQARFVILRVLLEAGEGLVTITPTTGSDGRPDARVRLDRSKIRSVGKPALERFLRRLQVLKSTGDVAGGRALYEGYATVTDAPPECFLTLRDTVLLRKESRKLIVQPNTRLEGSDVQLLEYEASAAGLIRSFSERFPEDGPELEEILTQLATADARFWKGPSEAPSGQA
Description: as §4, §5

dipeptidylcarboxypeptidase, sequence (P12821 30-1232): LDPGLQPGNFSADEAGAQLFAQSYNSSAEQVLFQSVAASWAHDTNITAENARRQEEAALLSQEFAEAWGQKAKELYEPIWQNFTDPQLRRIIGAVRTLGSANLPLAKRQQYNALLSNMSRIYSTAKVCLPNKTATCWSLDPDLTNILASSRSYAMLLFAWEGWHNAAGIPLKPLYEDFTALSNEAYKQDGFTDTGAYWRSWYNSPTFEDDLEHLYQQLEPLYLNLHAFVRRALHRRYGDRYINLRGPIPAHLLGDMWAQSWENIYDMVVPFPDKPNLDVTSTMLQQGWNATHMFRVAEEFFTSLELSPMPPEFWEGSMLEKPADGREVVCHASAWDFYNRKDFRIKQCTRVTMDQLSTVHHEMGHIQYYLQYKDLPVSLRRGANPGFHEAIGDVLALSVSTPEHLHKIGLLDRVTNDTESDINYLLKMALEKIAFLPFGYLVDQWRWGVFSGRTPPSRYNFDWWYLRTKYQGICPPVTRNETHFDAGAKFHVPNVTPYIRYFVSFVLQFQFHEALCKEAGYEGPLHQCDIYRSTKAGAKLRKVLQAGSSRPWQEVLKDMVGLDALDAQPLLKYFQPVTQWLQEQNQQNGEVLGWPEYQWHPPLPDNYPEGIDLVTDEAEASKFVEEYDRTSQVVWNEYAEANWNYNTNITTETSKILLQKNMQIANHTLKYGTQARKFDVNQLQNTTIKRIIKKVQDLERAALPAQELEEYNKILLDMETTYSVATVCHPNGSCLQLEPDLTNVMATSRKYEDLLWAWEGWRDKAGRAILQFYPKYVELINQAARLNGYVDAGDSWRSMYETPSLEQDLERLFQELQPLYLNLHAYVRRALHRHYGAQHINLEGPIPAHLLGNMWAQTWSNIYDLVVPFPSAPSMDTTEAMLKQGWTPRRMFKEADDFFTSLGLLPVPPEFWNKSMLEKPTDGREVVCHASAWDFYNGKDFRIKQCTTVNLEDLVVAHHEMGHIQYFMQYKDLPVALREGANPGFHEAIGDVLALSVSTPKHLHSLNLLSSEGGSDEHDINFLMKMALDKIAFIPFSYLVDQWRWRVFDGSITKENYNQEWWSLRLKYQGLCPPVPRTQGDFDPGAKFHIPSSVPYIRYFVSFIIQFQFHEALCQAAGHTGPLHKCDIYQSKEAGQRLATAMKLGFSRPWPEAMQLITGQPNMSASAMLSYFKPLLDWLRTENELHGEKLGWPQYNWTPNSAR

SMILES: C[C](C)(CC(=O)O)[Ge](=[S])[S][Ge](=[S])[C](C)(C)CC(=O)O [Compound (5)]
- IC50 [1]: 110 µg/mL
- inhibition rate, Aminopeptidase [1]: 88.0%

- IC50 [2]: 650 μg/m
SMILES: N=C(N)NCCCC(N)C(=O)CC(Cc1ccc(O)cc1)C(=O)O (stereo not drawn) [Arphamenine B, reference compound]

SMILES: C[CH](CC(=O)O)[Ge](=[S])[S][Ge](=[S])[CH](C)CC(=O)O (stereo not drawn) [Compound (2)]
- inhibition rate, Dipeptidylaminopeptidase [3]: 97.9%
- IC50 [4]: 168 µM
- IC50 [5]: 78 µg/mL
- inhibition rate, Carboxypeptidase [6]: 6.2%
- IC50 [7]: 159 µM
- inhibition rate, Aminopeptidase [8]: 87.6%

SMILES: O=C(O)C[CH](c1ccccc1)[Ge](=[S])[S][Ge](=[S])[CH](CC(=O)O)c1ccccc1 (stereo not drawn) [Compound (6)]
- IC50 ([6]; carboxypeptidase): 275 µg/mL
- inhibition rate, Carboxypeptidase [6]: 89.8%
- IC50 [7]: 185 µM
- inhibition effect on dipeptidylcarboxypeptidase [9]: exhibited inhibition effects
- inhibition effect on carboxypeptidase [10]: exhibited inhibition effects
- IC50 [1]: 19 µg/mL
- inhibition rate, Aminopeptidase [1]: 97.0%
- IC50 [2]: 440 μg/m
- inhibition effect on aminopeptidase [2]: exhibited inhibition effects

SMILES: O=C(O)C[CH2][Ge](=[S])[S][Ge](=[S])[CH2]CC(=O)O [Compound (1)]
- inhibition rate, Dipeptidylaminopeptidase [3]: 98.2%
- inhibition rate, Aminopeptidase [8]: 87.8%

SMILES: CC([CH2][Ge](=[S])[S][Ge](=[S])[CH2]C(C)C(=O)O)C(=O)O (stereo not drawn) [Compound (3)]
- inhibition rate, Dipeptidylaminopeptidase [3]: 97.7%
- inhibition rate, Aminopeptidase [8]: 85.6%
- inhibition effect on dipeptidylcarboxypeptidase [9]: exhibited inhibition effects
- IC50 [2]: 450 μg/m
- inhibition effect on aminopeptidase [2]: exhibited inhibition effects
- inhibition effect on dipeptidylaminopeptidase [11]: exhibited inhibition effects

- IC50 [2]: 810 μg/m
SMILES: N=C(N)NCCCC(N)C(=O)CC(Cc1ccccc1)C(=O)O (stereo not drawn) [Arphamenine A, reference compound]
